Laboratory results: US12122761B2, “2-azaspiro[3.4]octane derivatives as M4 agonists” (NOVARTIS AG, priority 2019, dated 2024)

What was measured:
[1] = biological target: T1, human cloned CHRM4 receptor (M4_CHO cells) (Homo sapiens, UniProt P08173); assay: CHRM4 Ca++ Flux Assay (agonist mode, FDSS 7000EX); format: cell-based; conditions: for EC50: geometric mean if tested more than once, read-out: M4 FDSS EC50
T1 construct: expressed in transfected cells; host or cells: CHO-K1
T1 sequence (P08173 1-479): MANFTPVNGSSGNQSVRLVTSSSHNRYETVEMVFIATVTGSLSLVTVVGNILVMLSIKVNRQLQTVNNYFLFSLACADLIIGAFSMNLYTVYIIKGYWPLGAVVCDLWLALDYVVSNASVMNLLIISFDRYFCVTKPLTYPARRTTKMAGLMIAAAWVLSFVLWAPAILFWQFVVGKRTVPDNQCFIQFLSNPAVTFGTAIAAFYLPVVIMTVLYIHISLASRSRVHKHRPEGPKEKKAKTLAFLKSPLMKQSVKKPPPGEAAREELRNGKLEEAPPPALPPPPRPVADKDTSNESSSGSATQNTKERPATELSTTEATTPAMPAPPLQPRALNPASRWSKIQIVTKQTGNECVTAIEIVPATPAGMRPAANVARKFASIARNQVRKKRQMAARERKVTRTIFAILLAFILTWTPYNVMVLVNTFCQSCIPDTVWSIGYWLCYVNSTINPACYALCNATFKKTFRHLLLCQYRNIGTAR
Procedure: (§1) The above examples were characterized by measuring the intracellular mobilization of Ca++ ions caused by signaling events mediated by the receptor. The Intra-cellular Calcium flux levels were captured by the highly sensitive Ca++ indicator, Calcium Assay Kit (BD Biosciences, Catalog Number 640178). The fluorescent activity from all receptors were monitored by the fluorescent imager, FDSS 7000EX (Hamamatsu) over a span of 3 minutes.
CHO-K1 cells stably expressing the human cloned CHRM4 receptor (M4_CHO cells) were grown and maintained in a monolayer culture with F12/HAM (Life Technologies) supplemented with 10% Fetal Bovine Serum, 1× Pen-Strep, and 0.4 mg/mL Geneticin in a humidified atmosphere (5% CO2) at 37° C. The cultures were grown to 80-90% confluency in T150 flasks (Corning) and washed with 1×DPBS then lifted with 0.05% Trypsin (Life Technologies). The cells were harvested in growth media then spun (1K rpm, 3 minutes) and cryopreserved using Recovery Cell Culture Freezing Media (Gibco Technologies). Cells were stored in liquid nitrogen and thawed a day before the assay.
Prior to the day of the assay, stable M4_CHO cells were thawed and plated on 384 well black walled clear bottom TC treated plates (Greiner Cat #781091) at 12K cells/well using F12/HAM Media supplemented with 10% FBS (Life Technologies) and kept overnight in a humidified atmosphere (5% CO2) at 37° C. The next day, cells were loaded with […] Ca^++ dye (BD Biosciences) using Loading Buffer (HBSS +Ca/+Mg, 20 mM HEPES, 2.5 mM Probenecid) and placed back in cell incubator for a minimum of 1 hour. After incubation, the dye was replaced with 45 μL Assay Buffer (HBSS −Ca/−Mg, 20 mM HEPES, 2.5 mM Probenecid) supplemented with 20 μM ATP (Sigma Aldrich) and kept at room temperature in the dark for 60 minutes before running on a cell imager. The FDSS 7000EX (Hamamatsu) was used to capture Ca^++ traces for a span of 3 minutes from cells treated with 11 point dose of compound in triplicate in order to generate dose response curves in agonist mode. All compounds were serially diluted in DMSO then prepared in Assay Buffer for Ca^++ flux studies. The dose response curves were generated from the average of triplicate wells obtained from each data point and used a non-linear regression of four parameter dose response algorithm. The Percent Activity (PA) was measured to EC100 of Carbachol.

[2] = biological target: T2, Cloned human M1 receptor (CHRM1) stably expressed in HEK293 cells (Homo sapiens, UniProt P11229); assay: CHRM1 Ca++ Flux Assay (agonist mode, FDSS 7000EX); format: cell-based; conditions: for M1 FDSS PA: Percent Activity; for EC50: geometric mean if tested more than once
T2 construct: expressed in transfected cells; host or cells: HEK293
T2 sequence (P11229 1-460): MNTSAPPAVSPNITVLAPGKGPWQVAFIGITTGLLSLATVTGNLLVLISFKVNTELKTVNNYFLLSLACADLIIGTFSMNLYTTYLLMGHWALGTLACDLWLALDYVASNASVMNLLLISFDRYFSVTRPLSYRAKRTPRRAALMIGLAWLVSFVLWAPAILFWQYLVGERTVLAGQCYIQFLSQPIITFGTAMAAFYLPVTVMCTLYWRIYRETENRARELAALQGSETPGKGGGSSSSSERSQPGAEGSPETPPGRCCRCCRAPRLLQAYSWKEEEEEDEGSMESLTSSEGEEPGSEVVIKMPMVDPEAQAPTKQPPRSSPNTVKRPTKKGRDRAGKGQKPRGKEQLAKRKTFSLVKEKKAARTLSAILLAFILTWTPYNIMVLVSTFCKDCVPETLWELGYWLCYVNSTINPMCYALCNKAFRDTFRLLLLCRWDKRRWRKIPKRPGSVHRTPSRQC
Procedure: as §1
Cloned human M1 receptor (CHRM1) was stably expressed in HEK293 cells and were grown and maintained in a monolayer culture with DMEM/High Glucose (Life Technologies) supplemented with 10% Fetal Bovine Serum, 1× Pen-Strep, and 0.5 mg/mL Geneticin in a humidified atmosphere (5% CO2) at 37° C. The cultures were grown to 90% confluency in T150 flasks (Corning) and washed with 1×DPBS and lifted with 0.05% Trypsin (Life Technologies). The cells were then spun (1K rpm, 3 minutes) and frozen using Recovery Cell Culture Freezing Media (Gibco Technologies). Cells were stored in liquid nitrogen and thawed a day before the assay.
Prior to the day of the assay, stable HEK293 M1 cells were thawed and plated on 384 well black walled clear bottom TC treated plates (Greiner Cat #781091) at 25K cells/well with DMEM/High Glucose supplemented with 10% FBS (Hyclone) Pen-Strep (Life Technologies) and kept overnight in a humidified atmosphere (5% CO2) at 37° C. The following day, cells were loaded with 20 uL Ca^++ dye (BD Biosciences) using Loading Buffer (HBSS +Ca/+Mg, 20 mM HEPES) and placed back in cell incubator for a minimum of 1 hour. The dye was replaced with 45 μL Assay Buffer (HBSS −Ca/−Mg, 20 mM HEPES) and kept at room temperature prior to running on cell imager. Compounds were prepared in Assay Buffer and 5 uL was added to the cells. The FDSS 7000EX (Hamamatsu) was used to acquire Ca++ traces for 3 minutes from cells treated with 11 point dose in triplicate in order to generate dose response curves in agonist mode. All compounds were serially diluted in DMSO then prepared in Assay Buffer for Ca^++ flux studies. The dose response curves were generated from the average of triplicate wells obtained from each data point and used a non-linear regression of four parameter dose response algorithm. The Percent Activity (PA) was measured to EC100 of Carbachol.

Row | Compound | M4 FDSS PA ([1]; Percent Activity) [%] | EC50 [1] [nM] | M1 FDSS PA [2] [%] | EC50 [2] [nM] | Emax ([1]; Percent Activity, read-out: M4 FDSS PA) [%] | Emax ([2]; HEK293, Percent Activity, read-out: M1 FDSS PA) [%]
1 | COc1ccccc1C1CCN([C@@H]2CCC3(C2)CN(c2ccnnc2)C3)CC1 [Example 5S, (R)-6-(4-(2-methoxyphenyl)piperidin-1-yl)-2-(pyridazin-4-yl)-2-azaspiro[3.4]octane] | – | 129 | – | 1040 | 55 | 45
2 | O=C(N1CC2(CC[C@@H](N3CCC(c4ccccc4OC4CCOCC4)CC3)C2)C1)C1(F)CC1 (single isomer, unassigned) [Example 9F, (R)-(1-fluorocyclopropyl)(6-(4-(2-((tetrahydro-2H-pyran-4-yl)oxy)phenyl)piperidin-1-yl)-2-azaspiro[3.4]octan-2-yl)methanone or (S)-(1-fluorocyclopropyl)(6-(4-(2-((tetrahydro-2H-pyran-4-yl)oxy)phenyl)piperidin-1-yl)-2-azaspiro[3.4]octan-2-yl)methanone] | 47 | 156 | 0 | > 25000 | – | –
3 | O=C(N1CC2(CC[C@@H](N3CCC(c4ccccc4OC(F)(F)F)CC3)C2)C1)C1(F)CC1 (single isomer, unassigned) [Example 9A, (R)-(1-fluorocyclopropyl)(6-(4-(2-(trifluoromethoxy)phenyl)piperidin-1-yl)-2-azaspiro[3.4]octan-2-yl)methanone or (S)-(1-fluorocyclopropyl)(6-(4-(2-(trifluoromethoxy)phenyl)piperidin-1-yl)-2-azaspiro[3.4]octan-2-yl)methanone] | 36 | 342 | 43 | 2650 | – | –
4 | COc1ccccc1C1CCN([C@@H]2CCC3(C2)CN(c2ncns2)C3)CC1 (single isomer, unassigned) [Example 10R, (R)-5-(6-(4-(2-methoxyphenyl)piperidin-1-yl)-2-azaspiro[3.4]octan-2-yl)-1,2,4-thiadiazole or (S)-5-(6-(4-(2-methoxyphenyl)piperidin-1-yl)-2-azaspiro[3.4]octan-2-yl)-1,2,4-thiadiazole] | 36 | 122 | 0 | > 25000 | – | –
5 | O=C(N1CC2(CC[C@@H](N3CCC(c4ccccc4OC4CC5(COC5)C4)CC3)C2)C1)C1(F)CC1 (single isomer, unassigned) [Example 11D, (R)-(6-(4-(2-((2-oxaspiro[3.3]heptan-6-yl)oxy)phenyl)piperidin-1-yl)-2-azaspiro[3.4]octan-2-yl)(1-fluorocyclopropyl)methanone or (S)-(6-(4-(2-((2-oxaspiro[3.3]heptan-6-yl)oxy)phenyl)piperidin-1-yl)-2-azaspiro[3.4]octan-2-yl)(1-fluorocyclopropyl)methanone] | 38 | 97 | 1 | > 25000 | – | –

These reach a lower EC50 [1]. Values come first.

Row | M4 FDSS PA ([1]; Percent Activity) [%] | EC50 [1] [nM] | M1 FDSS PA [2] [%] | EC50 [2] [nM] | Emax ([1]; Percent Activity, read-out: M4 FDSS PA) [%] | Emax ([2]; HEK293, Percent Activity, read-out: M1 FDSS PA) [%] | Compound
6 | 14 | 76 | 16 | 301 | – | – | O=C(N1CC2(CC[C@@H](N3CCC(c4ccccc4C4(O)CCOCC4)CC3)C2)C1)C1(F)CC1 (single isomer, unassigned) [Example 9G, (R)-(1-fluorocyclopropyl)(6-(4-(2-(4-hydroxytetrahydro-2H-pyran-4-yl)phenyl)piperidin-1-yl)-2-azaspiro[3.4]octan-2-yl)methanone or (S)-(1-fluorocyclopropyl)(6-(4-(2-(4-hydroxytetrahydro-2H-pyran-4-yl)phenyl)piperidin-1-yl)-2-azaspiro[3.4]octan-2-yl)methanone]
7 | 48 | 3 | 37 | 135 | – | – | O=C(N1CC2(CC[C@@H](N3CCC(c4ccccc4OCC4CCOCC4)CC3)C2)C1)C1(F)CC1 (single isomer, unassigned) [Example 7Q, (R)-(1-fluorocyclopropyl)(6-(4-(2-((tetrahydro-2H-pyran-4-yl)methoxy)phenyl)piperidin-1-yl)-2-azaspiro[3.4]octan-2-yl)methanone or (S)-(1-fluorocyclopropyl)(6-(4-(2-((tetrahydro-2H-pyran-4-yl)methoxy)phenyl)piperidin-1-yl)-2-azaspiro[3.4]octan-2-yl)methanone]
8 | 64 | 1 | 63 | 30 | – | – | COc1ccc(Cl)cc1C1CCN([C@H]2CCC3(C2)CN(C(=O)C2(F)CC2)C3)CC1 (single isomer, unassigned) [Example 8B, (S)-(6-(4-(5-chloro-2-methoxyphenyl)piperidin-1-yl)-2-azaspiro[3.4]octan-2-yl)(1-fluorocyclopropyl)methanone or (R)-(6-(4-(5-chloro-2-methoxyphenyl)piperidin-1-yl)-2-azaspiro[3.4]octan-2-yl)(1-fluorocyclopropyl)methanone]
9 | 54 | 1 | 27 | 48 | – | – | O=C(N1CC2(CC[C@@H](N3CCC(c4cc(F)ccc4OC4CCOCC4)CC3)C2)C1)C1(F)CC1 (single isomer, unassigned) [Example 9C, (R)-(6-(4-(5-fluoro-2-((tetrahydro-2H-pyran-4-yl)oxy)phenyl)piperidin-1-yl)-2-azaspiro[3.4]octan-2-yl)(1-fluorocyclopropyl)methanone or (S)-(6-(4-(5-fluoro-2-((tetrahydro-2H-pyran-4-yl)oxy)phenyl)piperidin-1-yl)-2-azaspiro[3.4]octan-2-yl)(1-fluorocyclopropyl)methanone]
